In patent US20230113037A1 (Bayer Aktiengesellschaft, priority 2019, published 2023):
Where “and” joins values, the source holds several entries; their conditions need not be identical. Equal values may be shown once. Read-outs that look alike come from different tables or passages of the source.

What was measured:
AHR [1] = target: T1, AHR (Homo sapiens, UniProt P35869); assay: In vitro assay 1: antagonism in human cell line (AHR transactivation, firefly luciferase reporter, kynurenic acid prestimulated); assay type: cell-based
T1 construct: U87 MG glioblastoma cells (ATCC #HTB-14) endogenously expressing AHR; endogenous in cells; host or cells: U87 MG glioblastoma cells (ATCC #HTB-14)
T1 sequence (P35869 11-848): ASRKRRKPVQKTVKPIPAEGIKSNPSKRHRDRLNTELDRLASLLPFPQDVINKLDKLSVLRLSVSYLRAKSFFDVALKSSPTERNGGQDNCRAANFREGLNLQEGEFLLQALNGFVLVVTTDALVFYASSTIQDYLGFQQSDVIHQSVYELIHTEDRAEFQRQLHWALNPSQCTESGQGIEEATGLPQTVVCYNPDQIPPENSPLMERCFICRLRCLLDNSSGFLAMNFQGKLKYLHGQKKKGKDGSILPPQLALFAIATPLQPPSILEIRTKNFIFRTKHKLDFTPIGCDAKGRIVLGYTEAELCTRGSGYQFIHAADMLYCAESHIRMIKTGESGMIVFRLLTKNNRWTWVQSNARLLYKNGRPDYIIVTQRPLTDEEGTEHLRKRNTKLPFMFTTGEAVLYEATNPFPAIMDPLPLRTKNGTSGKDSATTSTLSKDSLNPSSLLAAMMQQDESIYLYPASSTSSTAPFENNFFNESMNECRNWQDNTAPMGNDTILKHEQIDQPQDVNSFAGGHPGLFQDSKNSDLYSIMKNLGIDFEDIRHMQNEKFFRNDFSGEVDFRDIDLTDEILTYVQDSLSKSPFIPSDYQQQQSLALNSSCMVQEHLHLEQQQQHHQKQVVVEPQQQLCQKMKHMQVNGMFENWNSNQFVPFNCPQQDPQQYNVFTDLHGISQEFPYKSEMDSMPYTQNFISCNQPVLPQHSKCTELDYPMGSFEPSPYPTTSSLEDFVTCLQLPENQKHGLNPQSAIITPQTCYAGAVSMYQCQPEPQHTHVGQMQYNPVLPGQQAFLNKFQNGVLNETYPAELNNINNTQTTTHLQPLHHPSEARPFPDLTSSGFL
How it was run: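 U87 MG + DRE-firefly/constitutive-Renilla stable reporters; kynurenic acid prestim; dual-luc read; Renilla = tox; normalized vs pos/neg controls (pos: 150 μM KYNA + 5 μM staurosporine).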

AHR [2] = target: T2, AHR (Mus musculus, UniProt P30561); assay: In vitro assay 3: antagonism in mouse cell line (AHR transactivation, firefly luciferase reporter, kynurenic acid prestimulated); assay type: cell-based
T2 sequence (P30561 1-848 P471L/N533S/M589L): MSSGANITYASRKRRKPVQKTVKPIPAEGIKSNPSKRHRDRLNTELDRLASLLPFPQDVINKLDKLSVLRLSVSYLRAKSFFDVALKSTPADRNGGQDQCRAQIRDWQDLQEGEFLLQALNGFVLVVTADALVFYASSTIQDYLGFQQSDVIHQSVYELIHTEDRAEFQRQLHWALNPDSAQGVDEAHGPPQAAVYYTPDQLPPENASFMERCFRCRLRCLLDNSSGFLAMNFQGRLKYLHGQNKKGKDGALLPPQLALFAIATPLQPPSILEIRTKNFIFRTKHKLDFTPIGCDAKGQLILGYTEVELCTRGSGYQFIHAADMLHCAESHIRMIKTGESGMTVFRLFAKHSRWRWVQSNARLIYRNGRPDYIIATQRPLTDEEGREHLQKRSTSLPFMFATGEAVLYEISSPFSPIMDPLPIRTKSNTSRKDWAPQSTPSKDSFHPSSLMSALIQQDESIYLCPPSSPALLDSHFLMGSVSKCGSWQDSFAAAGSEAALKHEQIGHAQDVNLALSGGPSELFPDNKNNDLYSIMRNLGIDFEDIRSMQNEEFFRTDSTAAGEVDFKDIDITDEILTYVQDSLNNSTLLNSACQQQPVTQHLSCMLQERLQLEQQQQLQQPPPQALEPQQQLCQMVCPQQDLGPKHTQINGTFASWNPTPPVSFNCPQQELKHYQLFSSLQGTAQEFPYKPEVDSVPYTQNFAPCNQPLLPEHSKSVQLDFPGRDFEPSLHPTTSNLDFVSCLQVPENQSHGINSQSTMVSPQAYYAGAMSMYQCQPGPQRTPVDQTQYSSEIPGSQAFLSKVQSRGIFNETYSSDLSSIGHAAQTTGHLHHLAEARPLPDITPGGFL
How it was run: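 Cells were first stimulated with kynurenic acid, then exposed to test compound, after which firefly luciferase from a DRE-containing AHR reporter was read out. Signal was scaled between positive and negative controls. Cells not given kynurenic acid provided the inhibition reference.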

[3] = mouse Hepa 1c1c7 cells, 200 μM kynurenic acid, 20 hours, read-out: AHR Antagonism Mouse IC50
[4] = read-out: AHR Antagonism Mouse IC50, mouse Hepa 1c1c7 cells, 200 μM kynurenic acid, 20 hours
[5] = AHR Antagonism Human IC50 [M], firefly luciferase reporter
[6] = Hepa 1c1c7 cells, 200 μM kynurenic acid, 20 hours, firefly luciferase reporter, read-out: AHR Antagonism Mouse IC50

SMILES	IC50 (AHR [2]; [3]) [nM]	IC50 (AHR [1]; AHR Antagonism Human IC50 [M]) [M]	other results
O=C1NCCNCC1Nc1nc2cccc(C3CC3)c2c2nc(-c3cccc(F)c3)nn12 (single isomer, unassigned) [Example 301, 6-{[10-cyclopropyl-2-(3-fluorophenyl)[1,2,4]triazolo[1,5-c]quinazolin-5-yl]amino}-1,4-diazepan-5-one]	2240	–	IC50 (AHR [1]; read-out: AHR Antagonism Human IC50): > 2e-05 M
CS(=N)(=O)c1ccc(-c2nc3c4ccccc4nc(N[C@@H]4CCCCNC4=O)n3n2)cc1 (single isomer, unassigned) [Example 307]	84.7	1.35e-07	–
CS(=N)(=O)c1ccc(-c2nc3c4ccccc4nc(N[C@@H]4CCCCNC4=O)n3n2)cc1 (single isomer, unassigned) [Example 308]	18.6	1.1e-07	–
CCNC(=O)C(CC)Nc1nc2ccccc2c2nc(-c3cccc(OC(F)(F)F)c3)nn12 (single isomer, unassigned) [Example 319, N-ethyl-2-({2-[3-(trifluoromethoxy)phenyl][1,2,4]triazolo[1,5-c]quinazolin-5-yl}amino)butanamide]	0.502	1.74e-08	–
CCCCC(Nc1nc2ccccc2c2nc(-c3cccc(OC(F)(F)F)c3)nn12)C(N)=O (single isomer, unassigned) [Example 324, N^2-{2-[3-(trifluoromethoxy)phenyl][1,2,4]triazolo[1,5-c]quinazolin-5-yl}-norleucinamide]	–	2.02e-08	IC50 (AHR [2]; [4]): 16.4 nM
CS(=N)(=O)c1cccc(-c2nc3c4ccccc4nc(N[C@@H]4CCCCNC4=O)n3n2)c1 (single isomer, unassigned) [Example 659]	4500	1.62e-06	–
CS(=N)(=O)c1cccc(-c2nc3c4ccccc4nc(N[C@@H]4CCCCNC4=O)n3n2)c1 (single isomer, unassigned) [Example 660]	927	8.48e-07	–
CS(=N)(=O)c1ccccc1-c1nc2c3ccccc3nc(N[C@@H]3CCCCNC3=O)n2n1 (single isomer, unassigned) [Example 661]	–	1.53e-07	IC50 (AHR [2]; [4]): 139 nM
CS(=N)(=O)c1ccccc1-c1nc2c3ccccc3nc(N[C@@H]3CCCCNC3=O)n2n1 (single isomer, unassigned) [Example 662]	–	6.86e-08	IC50 (AHR [2]; [4]): 70.4 nM
CCNC(=O)C(CC)Nc1nc2ccccc2c2nc(-c3ccccc3OC(F)(F)F)nn12 (single isomer, unassigned) [Example 663, N-ethyl-2-({2-[2-(trifluoromethoxy)phenyl][1,2,4]triazolo[1,5-c]quinazolin-5-yl}amino)butanamide]	317	> 2e-05	–
CCNC(=O)C(CC)Nc1nc2ccccc2c2nc(-c3ccccc3OC(F)(F)F)nn12 (single isomer, unassigned) [Example 664, N-ethyl-2-({2-[2-(trifluoromethoxy)phenyl][1,2,4]triazolo[1,5-c]quinazolin-5-yl}amino)butanamide]	1.47	1.26e-08	–
Cn1cc(-c2nc3c4cccc(Br)c4nc(N[C@H]4C[S+]([O-])CCNC4=O)n3n2)cn1 (single isomer, unassigned) [Example 849]	–	–	IC50 (AHR [1]; [5]): 4.87e-07 M; IC50 (AHR [2]; [6]): 513 nM
COc1ccc(-c2nc3c4cccc(S(C)(=N)=O)c4nc(N[C@@H]4CCCCNC4=O)n3n2)cc1 (single isomer, unassigned) [Example 854]	–	–	IC50 (AHR [1]; [5]): 7.05e-09 M; IC50 (AHR [2]; [6]): 147 nM
COc1ccc(-c2nc3c4cccc(S(C)(=N)=O)c4nc(N[C@@H]4CCCCNC4=O)n3n2)cc1 (single isomer, unassigned) [Example 855]	–	–	IC50 (AHR [1]; [5]): 2.28e-09 M; IC50 (AHR [2]; [6]): 26.1 nM
Cn1cc(-c2nc3c4cccc(Br)c4nc(N[C@H]4CS(=N)(=O)CCNC4=O)n3n2)cn1 (single isomer, unassigned) [Example 856]	–	–	IC50 (AHR [1]; [5]): > 2e-05 M; IC50 (AHR [2]; [6]): 19600 nM and > 20000 nM
Cn1cc(-c2nc3c4cccc(Br)c4nc(N[C@H]4CS(=N)(=O)CCNC4=O)n3n2)cn1 (single isomer, unassigned) [Example 857]	–	–	IC50 (AHR [1]; [5]): 4.25e-06 M; IC50 (AHR [2]; [6]): 2140 nM
Cn1cc(-c2nc3c4cccc(C(F)(F)F)c4nc(NC4C(=O)NCC4(C)C)n3n2)cn1 (single isomer, unassigned; (-)) [Example 729, (−)-4,4-dimethyl-3-{[2-(1-methyl-1H-pyrazol-4-yl)-7-(trifluoromethyl)[1,2,4]triazolo[1,5-c]quinazolin-5-yl]amino}pyrrolidin-2-one]	161	3.6e-06	–
NC(=O)[C@@H](CO)Nc1nc2ccccc2c2nc(-c3ccccc3)nn12 [Example 2, N^2-(2-phenyl[1,2,4]triazolo[1,5-c]quinazolin-5-yl)-D-serinamide]	68.6	2.4e-08	–
CC(C)[C@@H](Nc1nc2ccccc2c2nc(-c3ccccc3)nn12)C(N)=O [Example 3, N^2-(2-phenyl[1,2,4]triazolo[1,5-c]quinazolin-5-yl)-D-valinamide]	0.428	1.82e-09	–
CC[C@@H](Nc1nc2ccccc2c2nc(-c3ccccc3)nn12)C(N)=O [Example 4, (2R)-2-[(2-phenyl[1,2,4]triazolo[1,5-c]quinazolin-5-yl)amino]butanamide]	0.91	1.68e-09	–
O=C1NCCCC[C@H]1Nc1nc2ccccc2c2nc(-c3ccc(Cl)cc3)nn12 [Example 6]	> 10000	5.93e-10	–
O=C1NCCCC1Nc1nc2ccccc2c2nc(-c3cccc(F)c3)nn12 (stereo not drawn) [Example 8, 3-{[2-(3-fluorophenyl)[1,2,4]triazolo[1,5-c]quinazolin-5-yl]amino}piperidin-2-one]	105	5.44e-08	–
O=C1NCCC1Nc1nc2ccccc2c2nc(-c3cccc(F)c3)nn12 (stereo not drawn) [Example 9, 3-{[2-(3-fluorophenyl)[1,2,4]triazolo[1,5-c]quinazolin-5-yl]amino}pyrrolidin-2-one]	68	2.62e-08	–
O=C1NCCCC[C@@H]1Nc1nc2ccccc2c2nc(-c3cccc(F)c3)nn12 [Example 10, (3S)-3-{[2-(3-fluorophenyl)[1,2,4]triazolo[1,5-c]quinazolin-5-yl]amino}azepan-2-one]	–	2.71e-08	IC50 (AHR [2]; [4]): 7.93 nM
O=C1NCCCC[C@H]1Nc1nc2ccccc2c2nc(-c3cccc(F)c3)nn12 [Example 11, (3R)-3-{[2-(3-fluorophenyl)[1,2,4]triazolo[1,5-c]quinazolin-5-yl]amino}azepan-2-one]	–	1.36e-09	IC50 (AHR [2]; [4]): 0.569 nM
Cn1cc(-c2nc3c4ccccc4nc(N[C@@H]4CCCCNC4=O)n3n2)cn1 [Example 12, (3R)-3-{[2-(1-methyl-1H-pyrazol-4-yl)[1,2,4]triazolo[1,5-c]quinazolin-5-yl]amino}azepan-2-one]	8.31	1.31e-08	–
Cn1cc(-c2nc3c4ccccc4nc(NC4CCCNC4=O)n3n2)cn1 (stereo not drawn) [Example 13, 3-{[2-(1-methyl-1H-pyrazol-4-yl)[1,2,4]triazolo[1,5-c]quinazolin-5-yl]amino}piperidin-2-one]	7260	1.21e-06	–
